Data taken from ChEMBL document CHEMBL1201862, “PubChem BioAssay data set” (2004).
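Test compounds were applied to cells in 96-well plates for 48 hours at 5 doses. At the GI50, growth is halved.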 Calls of active or inactive are those of the source. No stated cut-off is given here; in the data, active = GI50 up to about 1.1 µM and inactive = higher. Residues, ends and D or L forms follow the SMILES beside them. Groups on a side chain read outwards from the residue. *: point of attachment. Cbz = O=C(OCc1ccccc1)*; Boc = CC(C)(C)OC(=O)*

Key:
Assay in all cases: NCI-60 cell line screen, 48 h
TK-10 = system: TK-10
DU-145 = system: DU-145
OVCAR-5 = system: OVCAR-5
UO-31 = system: UO-31
HT-29 = system: HT-29
UACC-62 = system: UACC-62
SNB-19 = system: SNB-19
OVCAR-3 = system: OVCAR-3
ACHN = system: ACHN
RXF 393 = system: RXF 393
SN12C = system: SN12C
LOX IMVI = system: LOX IMVI
NCI/ADR-RES = system: NCI/ADR-RES
SW-620 = system: SW-620
RPMI-8226 = system: RPMI-8226
NCI-H226 = system: NCI-H226
HOP-62 = system: HOP-62
786-0 = system: 786-0
OVCAR-4 = system: OVCAR-4
SR = system: SR

Measured: GI50

CC1=NNC(=O)C1C1C=C(c2c[nH]c3ccccc23)OC1=O (stereo not given)
inactive: TK-10 > 100 µM | DU-145 > 100 µM | OVCAR-5 > 100 µM | UO-31 > 100 µM | HT-29 > 100 µM | UACC-62 > 100 µM | SNB-19 > 100 µM | OVCAR-3 > 100 µM | ACHN > 100 µM | RXF 393 > 100 µM | SN12C > 100 µM | LOX IMVI > 100 µM | NCI/ADR-RES > 100 µM | SW-620 > 100 µM | RPMI-8226 39.8 µM | NCI-H226 > 100 µM | HOP-62 > 100 µM | 786-0 > 100 µM

O=C1C2Nc3ccccc3SC2C(=O)N1c1cccc([N+](=O)[O-])c1 (stereo not given)
inactive: TK-10 35.4 µM | OVCAR-5 13.4 µM | UO-31 > 90.2 µM | HT-29 > 92.3 µM | UACC-62 > 100 µM | SNB-19 > 100 µM | OVCAR-3 > 100 µM | OVCAR-4 > 100 µM | ACHN > 84.1 µM | RXF 393 > 100 µM | SN12C > 86.9 µM | LOX IMVI > 71.1 µM | SW-620 > 100 µM | SR > 100 µM | RPMI-8226 > 100 µM | NCI-H226 > 86.9 µM | HOP-62 > 54.8 µM | 786-0 > 100 µM

C/C(=N\NS(=O)(=O)c1ccccc1)c1ccc(Cl)c(Cl)c1
inactive: TK-10 50.1 µM | OVCAR-5 > 100 µM | UO-31 45.4 µM | HT-29 44.7 µM | UACC-62 95.5 µM | OVCAR-3 25.3 µM | OVCAR-4 58.9 µM | ACHN 46.6 µM | RXF 393 55.3 µM | SN12C 45.4 µM | LOX IMVI 78.9 µM | SW-620 > 100 µM | SR 62.2 µM | RPMI-8226 67.5 µM | NCI-H226 62.8 µM | HOP-62 61.5 µM | 786-0 82.2 µM

COc1ccc(C2=NNC(=O)OC2c2ccccc2)cc1 (stereo not given)
inactive: TK-10 > 100 µM | OVCAR-5 > 100 µM | UO-31 > 100 µM | HT-29 38 µM | UACC-62 59.2 µM | SNB-19 67.1 µM | OVCAR-3 81.8 µM | OVCAR-4 > 100 µM | ACHN > 100 µM | RXF 393 38 µM | SN12C > 100 µM | LOX IMVI 55 µM | SW-620 38.9 µM | SR 55.2 µM | RPMI-8226 > 100 µM | NCI-H226 34.3 µM | HOP-62 > 100 µM | 786-0 > 100 µM

CCOC(=O)NC(=O)c1cn(C2OC(CO)C(O)C2O)c(=O)[nH]c1=O (stereo not given)
inactive: OVCAR-5 > 100 µM | UO-31 > 100 µM | HT-29 > 100 µM | UACC-62 > 100 µM | SNB-19 > 100 µM | OVCAR-3 > 100 µM | OVCAR-4 > 100 µM | ACHN > 100 µM | RXF 393 > 100 µM | SN12C > 100 µM | LOX IMVI > 100 µM | SW-620 > 100 µM | SR > 100 µM | RPMI-8226 > 100 µM | NCI-H226 > 100 µM | HOP-62 > 100 µM | 786-0 > 100 µM

CNS(=O)(=O)NN(C)S(=O)(=O)c1ccc2ccccc2c1
inactive: TK-10 > 100 µM | UO-31 > 100 µM | HT-29 > 100 µM | UACC-62 > 100 µM | SNB-19 > 10 µM | OVCAR-4 > 100 µM | ACHN > 100 µM | RXF 393 > 100 µM | SN12C > 100 µM | LOX IMVI > 100 µM | SW-620 > 100 µM | SR > 100 µM | RPMI-8226 > 100 µM | NCI-H226 > 100 µM | HOP-62 > 100 µM | 786-0 > 100 µM

O=C1c2cccc(O)c2C(=O)c2c(O)cccc21 [DANTHRON]
inactive: TK-10 > 100 µM | OVCAR-5 > 100 µM | UO-31 > 100 µM | HT-29 35.8 µM | UACC-62 16 µM | SNB-19 > 100 µM | OVCAR-3 28.3 µM | OVCAR-4 26.3 µM | ACHN > 100 µM | RXF 393 92.5 µM | SN12C > 100 µM | LOX IMVI 55.8 µM | SW-620 64.1 µM | SR 43.3 µM | RPMI-8226 50.7 µM | NCI-H226 > 100 µM | HOP-62 > 100 µM | 786-0 > 100 µM

CCc1cc2c(oc3cc(C)ccc32)c(=O)n1C
inactive: TK-10 > 10 µM | DU-145 > 10 µM | OVCAR-5 > 10 µM | UO-31 > 10 µM | HT-29 > 10 µM | SNB-19 > 10 µM | OVCAR-3 > 10 µM | OVCAR-4 > 10 µM | ACHN > 10 µM | RXF 393 > 10 µM | SN12C > 10 µM | LOX IMVI > 10 µM | SW-620 > 10 µM | SR > 10 µM | NCI-H226 > 10 µM | 786-0 > 10 µM

Cc1[nH]c2ccccc2c1C1Cc2ccccc2N1C(=O)/C=C/C=C/c1ccccc1 (stereo not given)
inactive: TK-10 > 100 µM | OVCAR-5 > 100 µM | UO-31 > 100 µM | HT-29 > 100 µM | UACC-62 > 100 µM | SNB-19 > 100 µM | OVCAR-3 13.1 µM | OVCAR-4 24.3 µM | ACHN > 100 µM | RXF 393 > 100 µM | SN12C > 100 µM | LOX IMVI > 100 µM | SW-620 > 100 µM | SR > 100 µM | RPMI-8226 > 100 µM | NCI-H226 > 100 µM | HOP-62 > 100 µM | 786-0 > 100 µM

O=C(CC1(O)C(=O)Nc2ccc(Br)cc21)c1ccc(Cl)cc1Cl (stereo not given)
inactive: TK-10 56.2 µM | OVCAR-5 > 100 µM | UO-31 > 100 µM | HT-29 38.3 µM | UACC-62 17.2 µM | SNB-19 > 100 µM | OVCAR-3 34.9 µM | OVCAR-4 36.1 µM | ACHN 60.1 µM | RXF 393 91.6 µM | SN12C 35.6 µM | SW-620 37.1 µM | SR 23.7 µM | RPMI-8226 22.1 µM | NCI-H226 39.4 µM | HOP-62 83.6 µM | 786-0 87.1 µM

CC(C)(C)OC(=O)NC(CCCCNC(=O)CNC(=O)OCc1ccccc1)C(=O)NC(CCCCNC(=O)CNC(=O)OCc1ccccc1)C(=O)NC(CCCCNC(=O)CNC(=O)OCc1ccccc1)C(=O)NC(CCCCNC(=O)CNC(=O)OCc1ccccc1)C(=O)O (stereo not given) (Boc-K([Gly-Cbz])K([Gly-Cbz])K([Gly-Cbz])K([Gly-Cbz])-OH; configuration not given here)
inactive: TK-10 > 100 µM | DU-145 > 100 µM | OVCAR-5 > 100 µM | UO-31 > 100 µM | HT-29 > 100 µM | UACC-62 > 100 µM | SNB-19 > 100 µM | OVCAR-3 > 100 µM | OVCAR-4 > 10 µM | ACHN > 100 µM | SN12C > 100 µM | LOX IMVI > 100 µM | SW-620 > 100 µM | SR > 100 µM | RPMI-8226 > 100 µM | NCI-H226 > 100 µM | HOP-62 > 100 µM | 786-0 > 100 µM

Cc1nc2c(=S)n(C)ncc2[nH]1
inactive: TK-10 > 100 µM | OVCAR-5 > 100 µM | UO-31 > 100 µM | HT-29 > 100 µM | UACC-62 > 100 µM | OVCAR-3 > 100 µM | OVCAR-4 > 100 µM | ACHN > 100 µM | SN12C > 100 µM | LOX IMVI > 100 µM | NCI/ADR-RES > 100 µM | SW-620 > 100 µM | RPMI-8226 > 100 µM | NCI-H226 > 100 µM | HOP-62 > 100 µM | 786-0 > 100 µM

COc1ccc2cc3nc(O)cc(O)c3cc2c1OC
inactive: TK-10 > 100 µM | OVCAR-5 > 100 µM | UO-31 > 100 µM | HT-29 > 100 µM | UACC-62 > 100 µM | SNB-19 > 100 µM | OVCAR-3 > 100 µM | OVCAR-4 > 100 µM | ACHN > 100 µM | RXF 393 > 100 µM | SN12C > 100 µM | LOX IMVI > 100 µM | SW-620 > 100 µM | SR > 100 µM | RPMI-8226 > 100 µM | NCI-H226 > 100 µM | HOP-62 > 100 µM | 786-0 > 100 µM

CC(=O)CC(=O)ON(C)C(C)=O
inactive: TK-10 > 100 µM | OVCAR-5 > 100 µM | UO-31 > 100 µM | HT-29 > 100 µM | UACC-62 > 100 µM | SNB-19 > 100 µM | OVCAR-3 > 100 µM | OVCAR-4 29.2 µM | ACHN > 100 µM | RXF 393 > 100 µM | SN12C > 100 µM | LOX IMVI > 100 µM | SW-620 > 100 µM | SR > 100 µM | RPMI-8226 > 100 µM | NCI-H226 > 100 µM | HOP-62 > 100 µM | 786-0 > 100 µM

CC(CC(=O)Nc1ccc(NC(=O)CC(C)/N=N\C(N)=O)cc1)/N=N\C(N)=O (stereo not given)
inactive: TK-10 > 100 µM | OVCAR-5 > 100 µM | UO-31 > 100 µM | HT-29 > 100 µM | UACC-62 > 100 µM | SNB-19 > 100 µM | OVCAR-3 > 100 µM | OVCAR-4 > 100 µM | ACHN > 100 µM | RXF 393 > 100 µM | SN12C > 100 µM | LOX IMVI 24.7 µM | SR 22.8 µM | RPMI-8226 > 100 µM | NCI-H226 > 100 µM | HOP-62 > 100 µM | 786-0 > 100 µM
